Laboratory results taken from ChEMBL document CHEMBL1221262, “Synthesis and antituberculosis activity of new fatty acid amides” (2010).
In brackets after ≈: the same amount, converted by molar mass.

Tested on: Mycobacterium tuberculosis
Test: Antitubercular activity against Mycobacterium tuberculosis H37Rv after 7 days by resazurin microtiter assay
Format: functional
Conditions: 168 h

Compound | MIC
CCCCCCCC/C=C\CCCCCCCC(=O)N1CCCCC1 | 50 µg/mL (≈ 143 µM)
CCCCCCCC/C=C\CCCCCCCC(=O)N1CCOCC1 | 25 µg/mL (≈ 71.1 µM)
CCCCCC[C@@H](O)C/C=C\CCCCCCCC(=O)NCc1ccccc1 | 25 µg/mL (≈ 64.5 µM)
CCCCCC[C@@H](O)C/C=C\CCCCCCCC(=O)N[C@H](C)c1ccccc1 | 100 µg/mL (≈ 249 µM)
CCCCCC[C@@H](O)C/C=C\CCCCCCCC(=O)N[C@@H](C)c1ccccc1 | 100 µg/mL (≈ 249 µM)
CCCCCC[C@@H](O)C/C=C\CCCCCCCC(=O)N1CCCC1 | 12.5 µg/mL (≈ 35.6 µM)
CCCCCC[C@@H](O)C/C=C\CCCCCCCC(=O)N1CCOCC1 | 50 µg/mL (≈ 136 µM)
CCCCC/C=C\C/C=C\CCCCCCCC(=O)N[C@H](C)c1ccccc1 | 100 µg/mL (≈ 261 µM)
CCCCC/C=C\C/C=C\CCCCCCCC(=O)N[C@@H](C)c1ccccc1 | 50 µg/mL (≈ 130 µM)
CCCCC/C=C\C/C=C\CCCCCCCC(=O)N1CCCC1 | 12.5 µg/mL (≈ 37.5 µM)
CCCCCCCCCCCCCCCC(=O)N[C@H](C)c1ccccc1 | > 100 µg/mL
CCCCCCCCCCCCCCCC(=O)N[C@@H](C)c1ccccc1 | > 100 µg/mL
CCCCCCCCCCCCCCCC(=O)N1CCCC1 | 25 µg/mL (≈ 80.8 µM)
CCCCCCCCCCCCCCCC(=O)N1CCCCC1 | 25 µg/mL (≈ 77.3 µM)
CCCCCCCCCCCCCCCCCC(=O)N[C@H](C)c1ccccc1 | > 100 µg/mL
CCCCCCCCCCCCCCCCCC(=O)N[C@@H](C)c1ccccc1 | > 100 µg/mL
CCCCCCCC/C=C\CCCCCCCC(=O)N1CCCC1 | 25 µg/mL (≈ 74.5 µM)
CCCCCCCC/C=C\CCCCCCCC(=O)NCCO [OLEOYLETHANOLAMIDE] | 25 µg/mL (≈ 76.8 µM)
CCCCCCCCCCCCCCCC(=O)NCCO [PALMIDROL] | > 100 µg/mL
